Patent publication US9216999B2, “Substituted pyrrolo[2,3-h][1,6]naphthyridines and compositions thereof as JAK inhibitors” (priority 2011, dated 2015)

What was measured:
Format in all cases: biochemical
Conditions in all cases: ATP 100 μM
JAK3 = JAK3 (Homo sapiens (Human), UniProt P52333); assay: Enzyme assay (Assay Example^a 1), JAK3
JAK2 = JAK2 (Homo sapiens (Human), UniProt O60674); assay: Enzyme assay (Assay Example^a 1), JAK2
JAK1 = JAK1 (Homo sapiens (Human), UniProt P23458); assay: Enzyme assay (Assay Example^a 1), JAK1
Tyk2 = Tyk2 (Homo sapiens (Human), UniProt P29597); assay: Enzyme assay (Assay Example^a 1), Tyk2
Sequence of Tyk2 (P29597 whole entry): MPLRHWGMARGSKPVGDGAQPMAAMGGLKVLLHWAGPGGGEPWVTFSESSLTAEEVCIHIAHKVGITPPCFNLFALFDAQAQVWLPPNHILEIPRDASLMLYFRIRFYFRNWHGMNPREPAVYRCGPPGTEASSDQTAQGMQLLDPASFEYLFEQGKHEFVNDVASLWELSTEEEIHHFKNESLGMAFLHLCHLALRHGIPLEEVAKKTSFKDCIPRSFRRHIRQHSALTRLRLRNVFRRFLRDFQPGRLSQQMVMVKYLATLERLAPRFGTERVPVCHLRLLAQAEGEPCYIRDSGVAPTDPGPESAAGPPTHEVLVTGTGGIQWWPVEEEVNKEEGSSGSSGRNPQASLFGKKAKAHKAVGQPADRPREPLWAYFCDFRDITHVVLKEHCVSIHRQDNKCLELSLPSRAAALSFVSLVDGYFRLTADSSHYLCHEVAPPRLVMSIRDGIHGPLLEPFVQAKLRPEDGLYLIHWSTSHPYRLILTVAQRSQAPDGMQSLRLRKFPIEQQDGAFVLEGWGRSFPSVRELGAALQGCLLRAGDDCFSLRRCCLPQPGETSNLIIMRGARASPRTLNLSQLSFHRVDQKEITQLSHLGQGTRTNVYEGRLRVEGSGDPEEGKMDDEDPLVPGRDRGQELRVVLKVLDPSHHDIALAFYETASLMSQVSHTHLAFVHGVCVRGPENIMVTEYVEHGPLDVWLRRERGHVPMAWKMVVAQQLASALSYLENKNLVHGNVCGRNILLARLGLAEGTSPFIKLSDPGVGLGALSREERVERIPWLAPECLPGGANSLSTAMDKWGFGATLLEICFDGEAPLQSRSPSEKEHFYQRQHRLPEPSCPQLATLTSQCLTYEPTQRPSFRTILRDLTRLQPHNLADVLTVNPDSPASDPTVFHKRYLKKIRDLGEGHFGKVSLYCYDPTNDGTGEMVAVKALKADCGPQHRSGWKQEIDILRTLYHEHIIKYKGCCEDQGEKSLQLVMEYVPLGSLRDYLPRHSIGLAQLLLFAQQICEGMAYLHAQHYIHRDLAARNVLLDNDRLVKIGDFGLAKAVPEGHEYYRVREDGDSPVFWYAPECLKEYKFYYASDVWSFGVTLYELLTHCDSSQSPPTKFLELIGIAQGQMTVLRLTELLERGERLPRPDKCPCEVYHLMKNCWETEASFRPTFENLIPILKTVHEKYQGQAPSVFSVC

Sequence of JAK3 (P52333 whole entry): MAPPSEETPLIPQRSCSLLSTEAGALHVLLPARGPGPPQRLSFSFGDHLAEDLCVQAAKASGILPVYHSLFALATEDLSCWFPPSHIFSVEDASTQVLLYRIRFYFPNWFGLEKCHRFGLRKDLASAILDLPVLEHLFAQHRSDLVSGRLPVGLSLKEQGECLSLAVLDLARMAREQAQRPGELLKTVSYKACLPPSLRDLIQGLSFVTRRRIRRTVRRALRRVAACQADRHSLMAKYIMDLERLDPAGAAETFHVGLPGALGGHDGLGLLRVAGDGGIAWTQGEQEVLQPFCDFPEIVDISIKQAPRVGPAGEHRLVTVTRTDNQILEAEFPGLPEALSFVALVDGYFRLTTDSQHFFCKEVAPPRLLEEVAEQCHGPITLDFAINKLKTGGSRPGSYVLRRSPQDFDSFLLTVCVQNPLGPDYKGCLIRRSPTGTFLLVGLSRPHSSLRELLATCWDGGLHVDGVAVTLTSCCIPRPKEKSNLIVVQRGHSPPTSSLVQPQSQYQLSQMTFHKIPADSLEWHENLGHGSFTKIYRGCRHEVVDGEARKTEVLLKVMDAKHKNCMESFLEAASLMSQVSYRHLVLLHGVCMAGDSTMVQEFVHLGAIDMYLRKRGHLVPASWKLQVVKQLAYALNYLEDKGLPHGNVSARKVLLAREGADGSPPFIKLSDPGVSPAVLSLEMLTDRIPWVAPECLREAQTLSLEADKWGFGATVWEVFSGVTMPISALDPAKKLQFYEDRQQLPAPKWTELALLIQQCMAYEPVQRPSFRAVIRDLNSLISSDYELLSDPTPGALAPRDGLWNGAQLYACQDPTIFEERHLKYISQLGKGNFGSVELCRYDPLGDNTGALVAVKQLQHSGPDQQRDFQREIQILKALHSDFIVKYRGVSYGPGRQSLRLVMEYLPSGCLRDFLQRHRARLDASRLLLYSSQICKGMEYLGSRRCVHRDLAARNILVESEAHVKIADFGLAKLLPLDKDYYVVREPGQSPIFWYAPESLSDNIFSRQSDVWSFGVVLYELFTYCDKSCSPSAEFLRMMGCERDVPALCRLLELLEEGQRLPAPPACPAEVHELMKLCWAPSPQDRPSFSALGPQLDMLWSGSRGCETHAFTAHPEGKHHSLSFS

Compound	IC50 (JAK3; Table^a 154)	IC50 (JAK2; Table^a 154)	IC50 (JAK1; Table^a 154)	IC50 (Tyk2; Table^a 154)	IC50 (JAK3)	IC50 (JAK2)	IC50 (JAK1)	IC50 (Tyk2)
FC(F)Oc1ccc(CN2CCC(c3nnn4cnc5[nH]ccc5c34)CC2)cc1 [compound 220, 1-{1-[4-(difluoromethoxy)benzyl]piperidin-4-yl}-7H-pyrrolo[3,2-e][1,2,3]triazolo[1,5-c]pyrimidine]					0.62 µM	0.086 µM	0.013 µM	> 1 µM
Fc1cc(NC[C@H]2CC[C@H](c3nnn4cnc5[nH]ccc5c34)CC2)cc(F)c1F [compound 250, N-{[trans-4-(7H-pyrrolo[3,2-e][1,2,3]triazolo[1,5-c]pyrimidin-1-yl)cyclohexyl]methyl}-3,4,5-trifluoroaniline]					> 1 µM	0.18 µM	0.031 µM	> 1 µM
CN(CCC#N)C[C@H]1CC[C@H](c2nnn3cnc4[nH]ccc4c23)CC1 [compound 302, 3-({[trans-4-(7H-pyrrolo[3,2-e][1,2,3]triazolo[1,5-c]pyrimidin-1-yl)cyclohexyl]methyl}(methyl)amino)propanenitrile]					0.49 µM	0.029 µM	0.012 µM	0.36 µM
COc1ccc(C(O)(CN[C@H]2CC[C@H](c3nnn4cnc5[nH]ccc5c34)CC2)C(F)(F)F)cc1 (stereo partly drawn) [388b, 3-{[trans-4-(7H-pyrrolo[3,2-e][1,2,3]triazolo[1,5-c]pyrimidin-1-yl)cyclohexyl]amino}-1,1,1-trifluoro-2-(4-methoxyphenyl)propan-2-ol]					0.26 µM	0.025 µM	0.0012 µM	0.21 µM
Cc1cc(NC(=O)N2CCCC(c3nnn4cnc5[nH]ccc5c34)C2)sn1 (racemic) [compound 21]	0.9 µM	0.11 µM	0.015 µM	0.71 µM				
N#CC(C#N)=C[C@H]1CC[C@H](c2nnn3cnc4[nH]ccc4c23)CC1 [compound 431, 2-{[trans-4-(7H-Pyrrolo[3,2-e][1,2,3]triazolo[1,5-c]pyrimidin-1-yl)cyclohexyl]methylene}malononitrile]					0.29 µM	0.013 µM	0.0048 µM	0.24 µM
O=C([C@H]1CC[C@H](c2nnn3cnc4[nH]ccc4c23)CC1)N1CC(O)C1 [compound 361, [trans-4-(7H-pyrrolo[3,2-e][1,2,3]triazolo[1,5-c]pyrimidin-1-yl)cyclohexyl](3-hydroxyazetidin-1-yl)methanone]					> 1 µM	0.25 µM	0.089 µM	> 1 µM
O=C(NCCO)[C@H]1CC[C@H](c2nnn3cnc4[nH]ccc4c23)CC1 [compound 360, trans-N-(2-hydroxyethyl)-4-(7H-pyrrolo[3,2-e][1,2,3]triazolo[1,5-c]pyrimidin-1-yl)cyclohexanecarboxamide]					> 1 µM	0.1 µM	0.026 µM	0.33 µM
FC(F)(F)C(NC[C@H]1CC[C@H](c2nnn3cnc4[nH]ccc4c23)CC1)C(F)(F)F [compound 317, N-{[trans-4-(7H-pyrrolo[3,2-e][1,2,3]triazolo[1,5-c]pyrimidin-1-yl)cyclohexyl]methyl}-1,1,1,3,3,3-hexafluoropropan-2-amine]					0.47 µM	0.016 µM	0.0013 µM	0.62 µM
c1cc2c(ncn3nnc([C@H]4CC[C@H](NCC5CC5)CC4)c23)[nH]1 [396b, trans-N-(cyclopropylmethyl)-4-(7H-pyrrolo[3,2-e][1,2,3]triazolo[1,5-c]pyrimidin-1-yl)cyclohexanamine]					> 1 µM	0.19 µM	0.022 µM	0.71 µM
N#CC(NC(=O)[C@H]1CC[C@H](c2nnn3cnc4[nH]ccc4c23)CC1)c1ccccc1 (stereo partly drawn) [compound 351, trans-N-[cyano(phenyl)methyl]-4-(7H-pyrrolo[3,2-e][1,2,3]triazolo[1,5-c]pyrimidin-1-yl)cyclohexanecarboxamide]					> 1 µM	0.089 µM	0.012 µM	> 1 µM
O=C1CN(C[C@H]2CC[C@H](c3nnn4cnc5[nH]ccc5c34)CC2)CCN1 [compound 260, 4-{[trans-4-(7H-pyrrolo[3,2-e][1,2,3]triazolo[1,5-c]pyrimidin-1-yl)cyclohexyl]methyl}piperazin-2-one]					> 1 µM	0.048 µM	0.024 µM	0.97 µM
O=C(O)C1CN(C[C@H]2CC[C@H](c3nnn4cnc5[nH]ccc5c34)CC2)C1 [compound 278, 1-{[trans-4-(7H-pyrrolo[3,2-e][1,2,3]triazolo[1,5-c]pyrimidin-1-yl)cyclohexyl]methyl}azetidine-3-carboxylic acid]					0.45 µM	0.034 µM	0.0043 µM	0.4 µM
O=C(NC[C@@H](O)c1ccccc1)[C@H]1CC[C@H](c2nnn3cnc4[nH]ccc4c23)CC1 [compound 353, trans-N-[(S)-2-hydroxy-2-phenylethyl]-4-(7H-pyrrolo[3,2-e][1,2,3]triazolo[1,5-c]pyrimidin-1-yl)cyclohexanecarboxamide]					0.35 µM	0.031 µM	0.0029 µM	0.46 µM
N#CCCNC(=O)[C@H]1CC[C@H](c2nnn3cnc4[nH]ccc4c23)CC1 [compound 356, trans-N-(2-cyanoethyl)-4-(7H-pyrrolo[3,2-e][1,2,3]triazolo[1,5-c]pyrimidin-1-yl)cyclohexanecarboxamide]					> 1 µM	0.036 µM	0.0036 µM	0.16 µM

Second part, led by results:

IC50 (JAK3; Table^a 154)	IC50 (JAK2; Table^a 154)	IC50 (JAK1; Table^a 154)	IC50 (Tyk2; Table^a 154)	Compound	IC50 (JAK3)	IC50 (JAK2)	IC50 (JAK1)	IC50 (Tyk2)
0.92 µM	0.084 µM	0.01 µM	0.18 µM	O=C1NCCN1CCNC[C@H]1CC[C@H](c2nnn3cnc4[nH]ccc4c23)CC1 [compound 191, 1-[2-({[trans-4-(7H-pyrrolo[3,2-e][1,2,3]triazolo[1,5-c]pyrimidin-1-yl)cyclohexyl]methyl}amino)ethyl]imidazolidin-2-one]				
0.17 µM	0.03 µM	0.0031 µM	0.98 µM	Fc1cc(CN2CCC(c3nnn4cnc5[nH]ccc5c34)CC2)ccc1C(F)(F)F [compound 167, 1-{1-[3-fluoro-4-(trifluoromethyl)benzyl]piperidin-4-yl}-7H-pyrrolo[3,2-e][1,2,3]triazolo[1,5-c]pyrimidine]				
0.41 µM	0.034 µM	0.01 µM	0.31 µM	Clc1cnccc1CN1CCC(c2nnn3cnc4[nH]ccc4c23)CC1 [compound 163, 1-{1-[(3-chloropyridin-4-yl)methyl]piperidin-4-yl}-7H-pyrrolo[3,2-e][1,2,3]triazolo[1,5-c]pyrimidine]				
0.17 µM	0.024 µM	0.0026 µM	0.053 µM	Clc1ccc(CCNC[C@H]2CC[C@H](c3nnn4cnc5[nH]ccc5c34)CC2)cc1 [compound 178, N-{[trans-4-(7H-pyrrolo[3,2-e][1,2,3]triazolo[1,5-c]pyrimidin-1-yl)cyclohexyl]methyl}-2-(4-chlorophenyl)ethanamine]				
0.41 µM	0.066 µM	0.0039 µM	0.1 µM	Fc1ccc(CCN[C@H]2CC[C@H](c3nnn4cnc5[nH]ccc5c34)CC2)cc1 [201b, trans-N-(4-fluorophenethyl)-4-(7H-pyrrolo[3,2-e][1,2,3]triazolo[1,5-c]pyrimidin-1-yl)cyclohexanamine]				
